Data reported in patent publication US20090298843A1, “TREATMENT OF HEMATOLOGICAL MALIGNANCIES WITH FTS AND A BCR-ABL TYROSINE KINASE INHIBITOR” (RAMOT AT TEL AVIV UNIVERSITY LTD., priority 2006, published 2009).

Assays:
K562 cells (Human, CML) [1] = assay: FACS analysis of propidium iodide stained cells (cell cycle distribution, sub-G1); type: cell-based; conditions: for cells in sub-G1: 48 h
Experimental: Third, a FACS analysis was performed. Cells were plated at a density of 50,000 cells per ml in 10 cm plates for fluorescence-activated cell-sorting (FACS) analysis of propidium iodide stained cells. […] Forty-eight hours (48 h) later, propidium iodide mixed with 1% Triton X-100 was added to the cells, and the cell cycle distribution of the cells was assessed using a FACS machine.
[Gambacorti-Passerini, C., le Coutre, P., Mologni, L., Fanelli, M., Bertazzoli, C., Marchesi, E., Di Nicola, M., Biondi, A., Corneo, G. M., Belotti, D., Pogliani, E., Lydon, N. B., Blood Cells Mol Dis. 23(3):380-94 (1997)].

[2] = system: seven leukemia cell lines (CEM, HSB-2, 697, Raji, U-937, HL-60, K562); assay: Cell growth inhibition assay, FTS alone, summary over the seven cell lines; type: cell-based, Human
From the text: (§1) The following cell lines were examined, representing Acute Myeloid Leukemia (AML), Acute Lymphoblastic Leukemia (ALL), and Chronic Myeloid Leukemia (CML): 1. CEM (Human T-cell leukemia, ALL) 2. HSB-2 (Human T-cell leukemia, ALL) carrying the t(1; 7) (p34; q34) involving the lck and tcrb genes and a submicroscopic del(1)(p32) leading to the Sil-Scl fusion gene 3. 697 (Human T-cell leukemia, ALL) 4. Raji (Human Burkitt's lymphoma) with overexpression and mutation in the c-Myc gene 5. U-937 (Human histiocytic lymphoma, AML) 6. HL-60 (AML) 7. K562 (Himan, CML) with a b3-a2 fusion gene to create the Bcr-Abl chimeric oncoprotein.
(§2) Cells were grown at 37° C. in RPMI containing 5% FCS, 100 μg/mL streptomycin, and 100 units/mL penicillin and maintained in a humidified atmosphere of 95% air/5% CO2. […] Each experiment tin quadruplicate) was performed at least two times.

HL-60 cells (AML) = assay: Cell growth inhibition assay, FTS alone (direct cell count); type: cell-based, Human; conditions: for cell number in FTS-treated cells as a percentage of controls (avg): counted 48 h after addition
From the text: as §1, §2

[3] = Phase-I open-label study of FTS in human patients with advanced hematologic malignancies; type: in vivo; conditions: for ANC, baseline level / HGB, baseline level / PLT, baseline level: before treatment
Experimental: One human patient with advanced myelodysplastic syndrome (MDS) refractory to chemotherapy was treated with FTS, at a dose of 200 b.i.d. (400 mg daily), administered on days 1 to 21 of a 28 day cycle. […] The results are graphically depicted in FIG. 7 and in Table 3 (below). Five human patients with advanced myelodysplastic syndrome (MDS), acute myelogenous leukemia (AML), or chronic myelogenous leukemia (CML) refractory to chemotherapy were treated with FTS at doses of 200 to 600 mg b.i.d. (400 to 1200 mg daily) administered on days 1 to 21 of a 28 day cycle. […]

K562 cells (Human, CML) [4] = assay: Cell growth inhibition assay, FTS alone (direct cell count); type: cell-based; conditions: for cell number in FTS-treated cells as a percentage of controls (avg): counted 48 h after addition
From the text: as §1, §2

[5] = system: CEM cells (Human T-cell leukemia, ALL); assay: as above; type: cell-based; conditions: for cell number in FTS-treated cells as a percentage of controls (avg): CEM, counted 48 h after addition
From the text: as §1, §2

[6] = system: U-937 cells (Human histiocytic lymphoma, AML); assay: as above; type: cell-based; conditions: U937; for cell number in FTS-treated cells as a percentage of controls (avg): counted 48 h after addition
From the text: as §1, §2

[7] = system: HSB-2 cells (Human T-cell leukemia, ALL); assay: as above; type: cell-based; conditions: for cell number in FTS-treated cells as a percentage of controls (avg): HSB, counted 48 h after addition
From the text: as §1, §2

[8] = system: Raji cells (Human Burkitt's lymphoma); assay: as above; type: cell-based; conditions: for cell number in FTS-treated cells as a percentage of controls (avg): counted 48 h after addition
From the text: as §1, §2

[9] = system: 697 cells (Human T-cell leukemia, ALL); assay: as above; type: cell-based; conditions: for cell number in FTS-treated cells as a percentage of controls (avg): counted 48 h after addition
From the text: as §1, §2

[10] = Homo sapiens, read-out: IC50 for FTS inhibition of leukemia cell growth
[11] = person one, AML, FTS 400 mg b.i.d.
[12] = person two, AML, FTS 400 mg b.i.d.
[13] = person, MDS, FTS 200 b.i.d., days 1 to 21 of a 28 day cycle

## Cc1ccc(NC(=O)c2ccc(CN3CCN(C)CC3)cc2)cc1Nc1nccc(-c2cccnc2)n1 [GLEEVEC, reference compound]
K562 cells (Human, CML) [1]; GLEEVEC only, 200 nM
  cells in sub-G1: 13%

## CC(C)=CCC/C(C)=C/CC/C(C)=C/CSc1ccccc1C(=O)O [FTS, farnesylthiosalicylic acid]
[2]; Homo sapiens, seven leukemia cell lines, read-out: half maximal inhibitory concentration (IC50) values, range over the cell lines
  IC50: 20 to 70 µM
[2]; seven cell lines
  growth inhibition, result in words: inhibited growth of each of seven cell lines
HL-60 cells (AML); FTS 6.25 uM
  cell number in FTS-treated cells as a percentage of controls (avg): 76%
HL-60 cells (AML); FTS 12.5 uM
  cell number in FTS-treated cells as a percentage of controls (avg): 69%
HL-60 cells (AML); FTS 25 uM
  cell number in FTS-treated cells as a percentage of controls (avg): 82%
HL-60 cells (AML); FTS 50 uM
  cell number in FTS-treated cells as a percentage of controls (avg): 67%
HL-60 cells (AML); FTS 75 uM
  cell number in FTS-treated cells as a percentage of controls (avg): 31%
HL-60 cells (AML); [10]
  IC50: 60 µM
K562 cells (Human, CML) [1]; FTS 70 μM with GLEEVEC 200 nM
  sensitization of K562 cells to GLEEVEC: chemosensitized the K562 cells to GLEEVEC
K562 cells (Human, CML) [1]; FTS only, 70 μM
  cells in sub-G1: 8%
[3]; five patients, advanced MDS, AML or CML refractory to chemotherapy, 200 to 600 mg b.i.d., days 1 to 21 of a 28 day cycle
  lineage response (PLT, HGB or ANC) over the course of treatment: improvement in one lineage
[3]; one patient, advanced MDS refractory to chemotherapy, 200 b.i.d. (400 mg daily), days 1 to 21 of a 28 day cycle
  lineage response (PLT, HGB, ANC) over the course of treatment: improvement in three lineages
[3]; [11]
  ANC, best level observed: 4.503e+09 L⁻¹
  ANC, baseline level: 0.285 to × 10^9/L
[3]; [12]
  ANC, best level observed: 9.54e+08 L⁻¹
  ANC, baseline level: 0.144 to × 10^9/L
[3]; person, CML, FTS 600 mg b.i.d.
  HGB, best level observed: 11.4 g/dL
  HGB, baseline level: 9.3 to g/dL
[3]; person, MDS, FTS 200 mg b.i.d.
  PLT, best level observed: 5.4e+10 L⁻¹
  PLT, baseline level: 21 to × 10^9/L
[3]; person, MDS, FTS 400 mg b.i.d.
  HGB, best level observed: 10.4 g/dL
  HGB, baseline level: 9.7 to g/dL
[3]; [13]
  ANC, best level observed: 9.7e+08 L⁻¹
  HGB, best level observed: 12.7 g/dL
  PLT, best level observed: 1.05e+11 L⁻¹
  ANC, baseline level: 0.40 to × 10^9/L
  HGB, baseline level: 10.4 to g/dL
  PLT, baseline level: 53 to × 10^9/L
K562 cells (Human, CML) [4]; FTS 6.25 uM
  cell number in FTS-treated cells as a percentage of controls (avg): 100%
K562 cells (Human, CML) [4]; FTS 12.5 uM
  cell number in FTS-treated cells as a percentage of controls (avg): 115%
K562 cells (Human, CML) [4]; FTS 25 uM
  cell number in FTS-treated cells as a percentage of controls (avg): 107%
K562 cells (Human, CML) [4]; FTS 50 uM
  cell number in FTS-treated cells as a percentage of controls (avg): 37%
K562 cells (Human, CML) [4]; FTS 75 uM
  cell number in FTS-treated cells as a percentage of controls (avg): 14%
K562 cells (Human, CML) [4]; FTS 100 uM
  cell number in FTS-treated cells as a percentage of controls (avg): 1%
K562 cells (Human, CML) [4]; [10]
  IC50: 50 µM
[5]; FTS 12.5 uM
  cell number in FTS-treated cells as a percentage of controls (avg): 89%
[5]; FTS 25 uM
  cell number in FTS-treated cells as a percentage of controls (avg): 78%
[5]; FTS 50 uM
  cell number in FTS-treated cells as a percentage of controls (avg): 71%
[5]; FTS 75 uM
  cell number in FTS-treated cells as a percentage of controls (avg): 32%
[5]; FTS 100 uM
  cell number in FTS-treated cells as a percentage of controls (avg): 12%
[5]; Homo sapiens, CCRF-CEM
  IC50: 50 µM
[6]; Homo sapiens, U-937, read-out: IC50 for FTS inhibition of leukemia cell growth
  IC50: 70 µM
[6]; FTS 12.5 uM
  cell number in FTS-treated cells as a percentage of controls (avg): 104%
[6]; FTS 25 uM
  cell number in FTS-treated cells as a percentage of controls (avg): 82%
[6]; FTS 50 uM
  cell number in FTS-treated cells as a percentage of controls (avg): 82%
[6]; FTS 75 uM
  cell number in FTS-treated cells as a percentage of controls (avg): 32%
[6]; FTS 100 uM
  cell number in FTS-treated cells as a percentage of controls (avg): 9%
[7]; FTS 12.5 uM
  cell number in FTS-treated cells as a percentage of controls (avg): 88%
[7]; FTS 25 uM
  cell number in FTS-treated cells as a percentage of controls (avg): 53%
[7]; FTS 50 uM
  cell number in FTS-treated cells as a percentage of controls (avg): 38%
[7]; FTS 75 uM
  cell number in FTS-treated cells as a percentage of controls (avg): 22%
[7]; FTS 100 uM
  cell number in FTS-treated cells as a percentage of controls (avg): 4%
[7]; Homo sapiens, HSB2
  IC50: 25 µM
[8]; FTS 6.25 uM
  cell number in FTS-treated cells as a percentage of controls (avg): 63%
[8]; FTS 12.5 uM
  cell number in FTS-treated cells as a percentage of controls (avg): 61%
[8]; FTS 25 uM
  cell number in FTS-treated cells as a percentage of controls (avg): 33%
[8]; FTS 50 uM
  cell number in FTS-treated cells as a percentage of controls (avg): 24%
[8]; FTS 75 uM
  cell number in FTS-treated cells as a percentage of controls (avg): 11%
[8]; FTS 100 uM
  cell number in FTS-treated cells as a percentage of controls (avg): 5%
[8]; [10]
  IC50: 20 µM
[9]; FTS 12.5 uM
  cell number in FTS-treated cells as a percentage of controls (avg): 27%
[9]; FTS 25 uM
  cell number in FTS-treated cells as a percentage of controls (avg): 44%
[9]; FTS 50 uM
  cell number in FTS-treated cells as a percentage of controls (avg): 34%
[9]; FTS 75 uM
  cell number in FTS-treated cells as a percentage of controls (avg): 4%
[9]; FTS 100 uM
  cell number in FTS-treated cells as a percentage of controls (avg): 2%
[9]; Homo sapiens, T-cell
  IC50: 25 µM
